Read-outs that look alike come from different tables or passages of the source.
Key:
C57BL/6J mice [1] = assay: Ambulation (locomotor activity) in CLAMS/Oxymax system; assay type: in vivo, mouse; details: 100 nmol, i.c.v.
Description: (§1) Respiration rates (in breaths per minute) and animal locomotive activity (as ambulations) were assessed using the Oxymax/CLAMS system (Columbus Instruments, Columbus, OH), as described previously. Mice were habituated to their individual sealed housing chambers for 60 min before testing. Mice were administered 1968-22 (0.3–100 nmol, i.c.v.), morphine (100 nmol, i.c.v.), or vehicle, as indicated, and five min later confined to the CLAMS testing chambers. Pressure monitoring within the sealed chambers measured frequency of respiration. Infrared beams located in the floor measured locomotion as number of beam breaks. Respiration and locomotive data were averaged over 20 min periods for 120 min post-injection of the test compound. Data are presented as % vehicle response ± SEM, ambulation or breaths per minute.

C57BL/6J mice [2] = assay: Respiration rate in CLAMS/Oxymax system; assay type: in vivo, mouse; details: 100 nmol, i.c.v.
Description: as §1

C57BL/6J mice [3] = assay: Conditioned place preference / aversion; assay type: in vivo, mouse; details: 10 mg/kg, i.p.; two days of place conditioning
C57BL/6J mice [4] = assay: 55 °C warm-water tail-withdrawal assay (antinociception); assay type: in vivo, mouse; details: for ED50 (and 95% Confidence Interval (C.I.)) Values, i.c.v. (nmol): antinociception at peak response, mice, * ED50 estimated where maximum antinociception not achieved; for duration of significant antinociception: maximum doses tested
Description: For intracerebroventricular (i.c.v.) administration, the 1968-series compounds were dissolved in dimethyl sulfoxide (DMSO), followed by the addition of sterile saline (0.9%) so that the final vehicle was 50% DMSO and 50% saline, and the i.c.v. injections were performed as described previously. For per os (p.o.) administration, 1968-4 and 1968-22 were administered in 10% Ethanol/10%Tween-80/80% 0.9% saline. All solutions for animal administration were prepared fresh daily.
Antinociception was calculated according to the following formula: % antinociception = 100 × (test latency − control latency)/(15 − control latency). Tail-withdrawal data points are the means of 8–16 mice, unless otherwise indicated, with SEM shown by error bars.
All dose–response lines were analyzed by regression, and ED50 (effective dose producing 50% antinociception) values and 95% confidence intervals (C.I.) were determined using individual data points from graded dose–response curves with Prism 8.0 software (GraphPad, La Jolla, CA, USA). Percent antinociception was used to determine within group effects and to allow comparison to baseline latency in tail-withdrawal experiments. The statistical significance of differences between ED50 values was determined by evaluation of the ED50 value shift via nonlinear regression modeling with Prism software. Significant differences in behavioral data were analyzed by ANOVA (one-way or two-way with repeated measures (RM), as appropriate). Significant results were further analyzed with Sidak’s, Tukey’s, or Dunnett’s multiple comparison post hoc tests, as appropriate. Data for conditioned place preference experiments were analyzed by two-way RM ANOVA, with analyses examining the main effect of the conditioned place preference phase (e.g., pre- or post-conditioning) and the interaction of drug pretreatment. Significant effects were further analyzed using Sidak’s HSD post hoc testing. All data are presented as mean ± SEM, with significance set at p < 0.05.

C57BL/6J mice [5] = assay: Acute antinociceptive tolerance determination
[6] = target: T1, delta-opioid receptor (DOR) (Rattus norvegicus, UniProt P33533); assay: DOR radioligand competition binding assay ([3H]-DPDPE); details: Delta screening results
T1 construct: Rat cortices were homogenized using 50 mM Tris, pH 7.4, 10 mM MgCl2-6H2O, 200 µM PMSF; from tissue; host or cells: rat cortex membranes
How it was run: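 Radioligand was 2 nM [3H]-DPDPE, incubated 2.5 h at 25 °C with homogenized rat cortex (50 mM Tris pH 7.4, 10 mM MgCl2, 200 µM PMSF). Bound ligand separated on GF/B filters and counted; nonspecific binding from unlabeled DPDPE. Values are mean ± SD, two experiments, two replicates each.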

C57BL/6J mice [7] = assay: Opioid receptor involvement in antinociception (antagonist pretreatment, tail-withdrawal assay); assay type: in vivo, mouse
Description: Pretreatment of mice with the opioid antagonist naloxone (10 mg/kg, s.c., −15 min) was used to assess receptor contribution to the observed antinociception induced by maximal tested doses of each 1968-series compound tested.
The opioid receptor involvement in the agonist activity of the heterocyclic peptidomimetics was determined by pretreating mice with a single dose of β-funaltrexamine (β-FNA, 10 mg/kg, i.p.) or nor-BNI (10 mg/kg, i.p.) 24 h in advance of administration of a dose of 1968-series compound.

mu-opioid receptor (MOR) = target: T2, mu-opioid receptor (MOR) (Rattus norvegicus, UniProt P33535); assay: MOR radioligand competition binding assay ([3H]-DAMGO); details: Mu screening results
T2 construct: Rat cortices were homogenized using 50 mM Tris, pH 7.4, and centrifuged at 16,500 rpm for 10 min; from tissue; host or cells: rat cortex membranes
How it was run: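 Competition for 2 nM [3H]-DAMGO binding was measured in rat cortex membrane suspension (50 mM Tris, pH 7.4, plus 2 mg/mL bovine serum). After filtration through GF/B filters pre-soaked in BSA, filter radioactivity was counted. Data are two duplicate experiments reported as mean ± SD.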

[8] = target: T3, kappa-opioid receptor (KOR) (Cavia porcellus, UniProt P41144); assay: KOR radioligand competition binding assay ([3H]U69,593); parameters: species or system guinea pig; details: Kappa screening results
T3 construct: Guinea pig cortices and cerebella were homogenized using 50 mM Tris, pH 7.4; from tissue; host or cells: guinea pig cortex and cerebellum membranes
How it was run: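 Guinea pig cortex and cerebellum homogenates in 50 mM Tris pH 7.4 with 10 mM MgCl2, 2 nM [3H]U69,593, 2 h at 25 °C. Unlabeled U50,488 gave the standard curve and nonspecific binding. Filtration on BSA-soaked GF/B filters, scintillation counting; two replicates, repeated twice, mean ± SD.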

δ opioid receptor = target: δ opioid receptor; parameters: method as in PMID 25996309; details: cited from earlier work
κ opioid receptor = target: κ opioid receptor; parameters: method as in PMID 25996309; details: cited from earlier work
[9] = first Ki column, unit not printed (apparently M), read-out: Ki (first column)
[10] = mean of both Ki, unit inferred, read-out: MEAN (Ki)
[11] = mean of two experiments, read-out: Ki
[12] = second Ki column, unit not printed (apparently M), read-out: Ki (second column)
[13] = experiment 1, unit inferred, read-out: Ki (Exp 1)
[14] = experiment 2, unit inferred, read-out: Ki (Exp 2)
[15] = mean of Exp 1 and Exp 2, unit inferred, read-out: MEAN (Ki)

Structure (SMILES) | Ki [6, 9] [nM] | Ki [6, 10] [nM] | Ki [6, 11] [nM] | Ki [6, 12] [nM] | Ki (mu-opioid receptor (MOR); [13]) [nM] | Ki (mu-opioid receptor (MOR); [14]) [nM] | Ki (mu-opioid receptor (MOR); [15]) [nM] | Ki (mu-opioid receptor (MOR); [11]) [nM] | Ki [8, 13] [nM] | Ki [8, 14] [nM] | Ki [8, 15] [nM] | Ki [8, 11] [nM] | further results
CN1CC[C@]23c4c5ccc(O)c4O[C@H]2[C@@H](O)C=C[C@H]3[C@H]1C5 [Morphine, morphine, reference compound] |  |  |  |  |  |  |  |  |  |  |  |  | effect on ambulation vs vehicle (C57BL/6J mice [1]): elevated ambulations; effect on respiration rate vs vehicle (C57BL/6J mice [2]): significant, time-dependent respiratory depression; place conditioning result (C57BL/6J mice [3]): significant place preference; time of peak antinociception after i.c.v. administration (C57BL/6J mice [4]; i.c.v.): 30 min; ED50 (and 95% Confidence Interval (C.I.)) Values, i.c.v. (nmol) (C57BL/6J mice [4]; i.c.v.): 3.09 (2.76–3.50) nmol; fold rightward shift in dose-response curve of the second dose (acute tolerance) (C57BL/6J mice [5]; ED50 dose i.c.v. at 0 h, graded doses at 8 h): 7.71 fold; ED50 (95% C.I.) of second dose at 8 h (C57BL/6J mice [5]; i.c.v., after ED50 pretreatment at 0 h): 23.8 (17.0–31.6) nmol
Cc1cc(O)cc(C)c1C[C@@H](CN1C(=N)NC[C@@H]1C)N1C[C@H](Cc2ccc(O)cc2)NC1=N [1968-16] | 616 | 697 | 697 | 777 | 7.52 | 9.24 | 8.38 | 8 | 246 | 293 | 270 | 270 | ED50 (and 95% Confidence Interval (C.I.)) Values, i.c.v. (nmol) (C57BL/6J mice [4]; i.c.v.): 2.00 (0.5–7.45) nmol; duration of significant antinociception (C57BL/6J mice [4]; i.c.v.): 70 min; effect of naloxone pretreatment on antinociception (C57BL/6J mice [7]; naloxone 10 mg/kg, s.c., −15 min, maximal tested i.c.v. dose of compound): most susceptible to antagonism by naloxone; effect of naltrindole (DOR antagonist) pretreatment on antinociception (C57BL/6J mice [7]; naltrindole 20 mg/kg, i.p., −20 min, 1968-16 30 nmol or 1968-22 0.3 nmol, i.c.v.): significantly antagonized; effect of nor-BNI (KOR antagonist) pretreatment on antinociception (C57BL/6J mice [7]; nor-BNI 10 mg/kg, i.p., −24 h, 1968-16 30 nmol or 1968-22 0.3 nmol, i.c.v.): significantly antagonized; effect of β-FNA (MOR antagonist) pretreatment on antinociception (C57BL/6J mice [7]; β-FNA 10 mg/kg, i.p., −24 h, 1968-16 30 nmol or 1968-22 0.3 nmol, i.c.v.): significantly antagonized
CC(C)C[C@H]1CN2C(=CC3=NC[C@H](C(C)C)N3C[C@@H]2Cc2ccc(O)cc2)N1CCc1ccccc1 [Diimidazodiazepine 14] |  |  |  |  |  |  |  |  |  |  |  |  | Ki (δ opioid receptor): 32 ± 6 nM; Ki (κ opioid receptor): 23 ± 12 nM
Cc1cc(O)cc(C)c1C[C@H]1CNC(=N)N1C[C@H](Cc1c(C)cc(O)cc1C)N1C[C@H](CC(C)C)NC1=N [1968-63] | 2270 | 2390 | 2390 | 2510 | 62.8 | 98.8 | 80.8 | 81 | 1640 | 1470 | 1550 | 1550 | 
Cc1cc(O)cc(C)c1C[C@H]1CN([C@@H](Cc2ccc(O)cc2)CN2C(=N)NC[C@@H]2Cc2ccccc2)C(=N)N1 [1968-4] | 729 | 874 | 874 | 1020 | 16.9 | 9.51 | 13.2 | 13 | 311 | 178 | 245 | 245 | antinociception at the highest dose tested (C57BL/6J mice [4]; 30 nmol, i.c.v.): approximately 60%; antinociception after oral administration (in words) (C57BL/6J mice [4]; 10 mg/kg, p.o.): significant antinociception; duration of significant antinociception after oral administration (C57BL/6J mice [4]; 10 mg/kg, p.o.): brief; time of peak antinociception after i.c.v. administration (C57BL/6J mice [4]; i.c.v.): 30 min; ED50 (and 95% Confidence Interval (C.I.)) Values, i.c.v. (nmol) (C57BL/6J mice [4]; i.c.v.): 20.8 (5.52–127.1) nmol; duration of significant antinociception (C57BL/6J mice [4]; i.c.v.): 60 min
N=C1NC[C@H](Cc2ccc(O)cc2)N1C[C@H](Cc1ccccc1)N1C[C@H](Cc2ccccc2)NC1=N [1968-17] | 7930 | 7100 | 7100 | 6270 | 1070 | 741 | 907 | 907 | 6270 | 6840 | 6550 | 6550 | 
Cc1cc(O)cc(C)c1C[C@H]1CNC(=N)N1C[C@H](CC(C)C)N1C[C@H](Cc2ccc(O)cc2)NC1=N [1968-58] | 1150 | 896 | 896 | 638 | 55.1 | 62 | 58.6 | 59 | 542 | 775 | 659 | 659 | 
Cc1cc(O)cc(C)c1C[C@H]1CN([C@@H](Cc2ccccc2)CN2C(=N)NC[C@@H]2Cc2c(C)cc(O)cc2C)C(=N)N1 [1968-52] | 582 | 551 | 551 | 521 | 83.4 | 102 | 92.8 | 93 | 1200 | 1240 | 1220 | 1220 | 
N=C1NC[C@H](Cc2ccc(O)cc2)N1C[C@H](Cc1ccc(O)cc1)N1C[C@H](Cc2ccccc2)NC1=N [1968-21] | 7830 | 7730 | 7730 | 7630 | 175 | 199 | 187 | 187 | 3590 | 3290 | 3440 | 3440 | 
N=C1NC[C@H](Cc2ccccc2)N1C[C@H](Cc1ccc(O)cc1)N1C[C@H](Cc2ccc(O)cc2)NC1=N [1968-6] | 4880 | 4980 | 4980 | 5090 | 84.5 | 67.2 | 75.8 | 76 | 5350 | 3430 | 4390 | 4390 | 
CC(C)C[C@@H](CN1C(=N)NC[C@@H]1Cc1ccc(O)cc1)N1C[C@H](Cc2ccccc2)NC1=N [1968-25] | 25400 | 30500 | 30500 | 35700 | 707 | 725 | 716 | 716 | 6550 | 3320 | 4930 | 4930 | 

— PMC9455983 (International Journal of Molecular Sciences, 2022)
